Source: patent US20240109890A1, “BRIDGED HETEROCYCLYL-SUBSTITUTED PYRIMIDINE COMPOUNDS, PREPARATION METHOD AND MEDICAL USE THEREOF” (THE NATIONAL INSTITUTES OF PHARMACEUTICAL R&D CO., LTD., priority 2021, published 2024)

Legend:
JAK1 kinase = JAK1 kinase (Homo sapiens (Human), UniProt P23458); test: In vitro inhibitory activity on JAK1 kinase (ADP-Glo Kinase Assay); type: biochemical; details: JAK1 4 nM, 1 mM ATP, IRS1 substrate
Description: Experimental materials: JAK1 kinase (Invitrogen, PV4744), ATP (Promega, V915B), ADP-Glo Kinase Assay (Promega, V9101), IRS1 (Signalchem, 140-58-1000). Sample preparation: The compounds of the present invention and the control product were dissolved in DMSO solvent respectively to formulate into 10 mM mother liquor. The final reaction maximum concentration of the compound was 10 μM, 3-fold dilution, 10 concentration gradients, and duplicate wells for each concentration gradient. Experimental process: 0.1 μL of the compound to be tested was transferred into a 384-well reaction plate (PE, 6007290) via Echo and centrifuged at 1000 rpm/min for 1 min. 5 μL of JAK1 kinase (final concentration of 4 nM) was transferred into the 384-well reaction plate, which was then centrifuged at 1000 rpm/min for 1 min, and incubated at 25° C. for 15 min. 5 μL of substrate mixture (1 mM ATP, IRS1 0.05 mg/ml, kinase buffer solution) was transferred into the 384-well reaction plate, which was then centrifuged at 1000 rpm/min for 1 min, and incubated at 25° C. for 60 min. 10 μL of ADP-Glo was transferred into the 384-well reaction plate, which was then centrifuged at 1000 rpm/min for 1 min, and incubated at 25° C. for 40 min. 20 μL of test solution was transferred into the 384-well reaction plate, which was then centrifuged at 1000 rpm/min for 1 min and incubated at 25° C. for 40 min. RLU (Relative luminescence unit) signal was read by using an Envision multifunctional plate reader. The signal intensity was used to characterize the degree of the kinase activity. […] IC50 value of 0-100 nM is shown as A, IC50 value of 100-300 nM is shown as B, IC50 value of 300-1000 nM is shown as C, and IC50 value which is greater than 1000 nM is shown as D. NT means not tested.

[1] = test system: IFN-2α-stimulated TYK2/JAK1-mediated pathway; test: Inhibition of STAT3 signaling pathway of human whole blood (IFN-2α induced pSTAT3, flow cytometry); type: cell-based; details: IFN-2α stimulation, CD3/pSTAT3 staining
Description: Sample preparation: The compounds of the present invention and the control were dissolved in DMSO solvent respectively to formulate into 10 mM mother liquor. The final reaction maximum concentration of the compound was 10 μM, 3-fold dilution, 10 concentration gradients, and duplicate wells for each concentration gradient.
Experimental process: 20 μL of the compound of the present invention was added to a flow cytometer tube (BD, 352052) containing 180 μL of anticoagulant sodium heparin. 20 μL of PBS was added to the control tube. The sample was incubated at 37° C. for 30 min. 2 μL of stimulating factor was added and then incubated at 37° C. for 20 min. 1 mL of erythrocyte lysate was added, and the sample was repeatedly inverted 5 to 10 times or vortexed and then incubated at 37° C. for 10 min. The sample was centrifuged at 600 g for 6 to 8 min. The supernatant was discarded. The mixture was vortexed until the precipitate was suspended. The cells were washed with 3 mL of PBS and centrifuged at 600 g for 6 to 8 min. The supernatant was discarded. The mixture was vortexed until the precipitate was suspended. 1 mL of membrane breaking solution was added, and the system was mixed gently, incubated on ice for 30 min, and centrifuged at 600 g for 6 to 8 min. The supernatant was discarded. The mixture was vortexed until the precipitate was suspended. The cells were washed. 3 mL of PBS was added. […]

[2] = Pharmacokinetic study in rats; type: in vivo, rat; details: for F / AUC(0-t) / Cmax / half-life: male SD rats, i.v. 1 mg/kg, p.o. 5 mg/kg; for AUC(0-t) / Cmax / half-life: rat, plasma, route of this value not stated; for pharmacokinetic properties (overall statement): rats
Description: Sample preparation: The compounds of Examples 1-a and 1-b were formulated into 0.2 mg/mL and 0.5 mg/mL solutions with 20% cyclodextrin.
Experimental method: Male SD rats (Beijing Vital River Laboratory Animal Technology Co., Ltd.) were used, the intravenous dose was 1 mg/kg (intravenously, i.v). Blood was collected from the canthus venous plexus before administration and at 0, 5 minutes, 15 minutes, 30 minutes, 1 hour, 2 hours, 4 hours, 6 hours and 8 hours after administration. The oral dose was 5 mg/kg (oral, p.o). Blood was collected from the canthus venous plexus before administration and at 15 minutes, 30 minutes, 1 hour, 2 hours, 4 hours, 6 hours and 8 hours after administration. The blood was anticoagulated with sodium heparin, centrifuged at 3500 rpm for 10 minutes at 4° C. The plasma was obtained and stored at −20° C. until testing.
50 μL of the plasma sample melted at room temperature was precisely measured and placed in a 1.5 mL EP tube, followed by adding 400 μL of verapamil internal standard working solution (China National Institute for Drug Control). The EP tube was vortexed vigorously for 1 minute, and centrifuged at 16000 rpm for 10 minutes. The supernatant was collected, filtered with a 0.22 μm organic membrane (AS081320-T, Agela Technologies), and added to an injection vial. The plasma concentration was obtained by LC/MS (Waters UPLC I Class/ TQ-S micro). The main pharmacokinetic parameters of compounds 1-a and 1-b in rats were obtained by DAS3.3.0 software.

AIA model = test: AIA pharmacodynamic study in rats (complete Freund's adjuvant, arthritis scoring); type: in vivo, rat; details: female Lewis rats, arthritis score; for efficacy in the AIA model versus reference PF-06700841: low dose 1 mg/kg and high dose 3 mg/kg groups
Description: Experimental materials: Complete Freund's adjuvant (Chondrex, 7027); positive control compound PF-06700841, which has a structure of
Experimental process: The in vivo efficacy of the compounds of the present invention was investigated. 8-Week-old female Lewis rats (Beijing Vital River Laboratory Animal Technology Co., Ltd.) were subcutaneously injected with 0.1 mL of complete Freund's adjuvant at a single site on the base of their tails, and grouped 13 days after modeling. 8 groups were divided: the normal group, the model group, the PF-06700841 low dose group, the PF-06700841 high dose group, the compound 1-a low dose group, the compound 1-a high dose group, the compound 1-b low dose group, and the compound 1-b high dose group (the compounds to be tested were formulated into 0.1 mg/mL and 0.3 mg/mL solutions with 20% cyclodextrin solution). 20% cyclodextrin was administered to the model group, 1 mg/kg of the test compound was administered to the low dose group, and 3 mg/kg of the test compound was administered to the high dose group. The scores were evaluated every 2 days after administration. Scoring criteria: 0 point: no redness and swelling; 1 point: mild redness and swelling of ankle joints and wrist joints; 2 points: moderate redness and swelling of ankle joints and wrist joints; 3 points: severe redness and swelling of the paw including the fingertips; 4 points: maximal inflammation of the extremities, including multiple joints. The scoring results were analyzed by Graph prism9.0 software.
FIG. 1 is a graph showing the rat AIA pharmacodynamic scoring results of the compounds of the present invention.

JAK1 kinase, sequence (P23458 whole entry): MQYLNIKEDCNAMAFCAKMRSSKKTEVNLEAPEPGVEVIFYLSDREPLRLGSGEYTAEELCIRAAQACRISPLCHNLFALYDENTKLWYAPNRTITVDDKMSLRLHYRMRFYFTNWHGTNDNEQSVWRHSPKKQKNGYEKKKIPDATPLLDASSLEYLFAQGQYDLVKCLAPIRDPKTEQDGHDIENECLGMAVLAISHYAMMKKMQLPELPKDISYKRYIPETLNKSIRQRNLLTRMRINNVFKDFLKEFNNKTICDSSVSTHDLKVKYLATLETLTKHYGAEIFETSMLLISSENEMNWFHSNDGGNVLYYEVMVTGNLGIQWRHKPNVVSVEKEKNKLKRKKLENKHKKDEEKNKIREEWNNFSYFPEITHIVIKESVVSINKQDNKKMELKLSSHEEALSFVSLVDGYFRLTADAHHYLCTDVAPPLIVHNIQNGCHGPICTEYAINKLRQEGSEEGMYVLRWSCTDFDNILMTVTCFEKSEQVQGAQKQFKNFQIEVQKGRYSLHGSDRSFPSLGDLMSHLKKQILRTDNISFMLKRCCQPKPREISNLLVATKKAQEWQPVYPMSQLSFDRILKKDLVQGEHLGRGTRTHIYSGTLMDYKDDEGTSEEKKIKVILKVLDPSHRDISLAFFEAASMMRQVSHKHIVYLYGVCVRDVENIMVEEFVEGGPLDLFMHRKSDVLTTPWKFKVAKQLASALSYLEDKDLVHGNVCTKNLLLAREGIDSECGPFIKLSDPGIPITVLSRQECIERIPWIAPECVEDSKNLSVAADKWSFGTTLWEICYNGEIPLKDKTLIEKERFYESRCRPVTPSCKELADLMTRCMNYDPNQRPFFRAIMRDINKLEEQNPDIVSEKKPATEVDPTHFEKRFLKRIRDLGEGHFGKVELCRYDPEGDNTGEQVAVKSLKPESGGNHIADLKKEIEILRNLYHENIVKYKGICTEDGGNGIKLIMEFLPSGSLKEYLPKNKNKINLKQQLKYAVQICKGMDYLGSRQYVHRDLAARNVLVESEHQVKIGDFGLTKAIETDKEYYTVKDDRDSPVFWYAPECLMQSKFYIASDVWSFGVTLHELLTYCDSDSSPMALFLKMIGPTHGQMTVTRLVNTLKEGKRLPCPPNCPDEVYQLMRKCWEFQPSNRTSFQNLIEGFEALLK

| Structure (SMILES) | IC50 (JAK1 kinase) [nM] | IC50 [1] [nM] | F [2] | AUC(0-t) [2] [ng·h/mL] | Cmax [2] [ng/mL] | half-life [2] [h] | pharmacokinetic properties (overall statement) [2] | efficacy in the AIA model versus isomer 1-b (AIA model; 1 mg/kg and 3 mg/kg) | efficacy in the AIA model versus reference PF-06700841 (AIA model) |
| --- | --- | --- | --- | --- | --- | --- | --- | --- | --- |
| Cn1cc(Nc2nccc(C3=CC4CCC(C3)N4C(=O)[C@@H]3C[C@H]3F)n2)cn1 (stereo partly drawn) [Compound 1, ((1S,2R)-2-fluorocyclopropyl)(3-(2-((1-methyl-1H-pyrazol-4-yl)amino)pyrimidin-4-yl)-8-azabicyclo[3.2.1]oct-2-en-8-yl)methanone] | < 100 | – | – | – | – | – | – | – | – |
| Cn1cc(Nc2nccc(C3=C[C@@H]4CC[C@H](C3)N4C(=O)[C@@H]3C[C@H]3F)n2)cn1 [Compound 1-a, ((1S,2R)-2-fluorocyclopropyl)((1S,5R)-3-(2-((1-methyl-1H-pyrazol-4-yl)amino)pyrimidin-4-yl)-8-azabicyclo[3.2.1]oct-2en-8-yl)methanone] | < 100 | < 100 | A (F>50% is shown as A) | > 1000 | > 500 | > 1 | good pharmacokinetic properties | significantly better than that of isomer 1-b | significantly better than that of the reference PF-06700841 |
| Cn1cc(Nc2nccc(C3=C[C@H]4CC[C@@H](C3)N4C(=O)[C@@H]3C[C@H]3F)n2)cn1 [Compound 1-b, ((1S,2R)-2-fluorocyclopropyl)((1R,5S)-3-(2-((1-methyl-1H-pyrazol-4-yl)amino)pyrimidin-4-yl)-8-azabicyclo[3.2.1]oct-2-en-8-yl)methanone] | < 100 | < 100 | A (F>50% is shown as A) | 500 to 1000 | 300 to 500 | > 1 | good pharmacokinetic properties | – | significantly better than that of the reference PF-06700841 |
| Cn1cc(Nc2nccc(C3=CC4CCC(C3)N4C(=O)[C@H]3C[C@@H]3F)n2)cn1 (stereo partly drawn) [Compound 2, ((1R,2S)-2-fluorocyclopropyl)(3-(2-((1-methyl-1H-pyrazol-4-yl)amino)pyrimidin-4-yl)-8-azabicyclo[3.2.1]oct-2-en-8-yl)methanone] | 300 to 1000 | – | – | – | – | – | – | – | – |
| Cn1cc(Nc2nccc(C3=C[C@@H]4CC[C@H](C3)N4C(=O)[C@H]3C[C@@H]3F)n2)cn1 [Compound 2-a, ((1R,2S)-2-fluorocyclopropyl)((1S,5R)-3-(2-((1-methyl-1H-pyrazol-4-yl)amino)pyrimidin-4-yl)-8-azabicyclo[3.2.1]oct-2-en-8-yl)methanone] | 300 to 1000 | – | – | – | – | – | – | – | – |
| Cn1cc(Nc2nccc(C3=C[C@H]4CC[C@@H](C3)N4C(=O)[C@H]3C[C@@H]3F)n2)cn1 [Compound 2-b, ((1R,2S)-2-fluorocyclopropyl)((1R,5S)-3-(2-((1-methyl-1H-pyrazol-4-yl)amino)pyrimidin-4-yl)-8-azabicyclo[3.2.1]oct-2-en-8-yl)methanone] | 100 to 300 | – | – | – | – | – | – | – | – |
